Measurements published in patent US20230247989A1, “Synergistic Biocide Composition With a Polyglycerol Ester” (Arch UK Biocides Ltd, priority 2020, published 2023).

Test system: Pseudomonas aeruginosa ATCC 15442
Experiment: Suspension test for synergy: log reduction of Pseudomonas aeruginosa after 5 min contact
Type: cell-based
Conditions: for Log Reduction: 5 minutes contact
Procedure: The target organism Pseudomonas aeruginosa ATCC 15442 was taken from freezer stocks and grown for 24 hours on tryptone soy agar (TSA) at 37° C. A second subculture was produced from the first and grown with the same conditions. A test suspension was then created by adding loopfuls of organism to tryptone buffered saline and adjusting the cell concentration to 1×10^8 and 5×10^8 CFU/ml using an internally established calibration curve spectrophotometer at a wavelength of 600 nm. To establish the precise CFU/ml a 1 ml aliquot was then taken from the test suspension and serially diluted down to 10^−6 and 10^−7, 1 ml of each dilution was then plated in duplicate using the pour plate method on to TSA. The plates were then incubated for 24 hours at 37° C. and enumerated.
For each biocide tested a series of 3 samples were prepared in sterile distilled water,
Test sample 1—Biocide alone (to measure basic efficacy of the biocide)
Test sample 2—Biocide in combination with polyglyceryl-10 caprylate/caprate (to measure the efficacy of the combination of biocide and polyglycerol ester)
Control—A control sample of polyglyceryl-10 caprylate/caprate was prepared in deionized water to measure the efficacy of polyglycerol ester alone.
Each test sample was prepared at a concentration 10% higher than that of the target concentration to account for the dilution effect from the addition of the test organism suspension during the test procedure.
A test mixture was prepared by adding a 0.1 ml aliquot of test organism suspension to a tube followed by 0.9 ml of test sample (prepared as above). The combination was then mixed and a timer started immediately.
Upon achieving the specified contact time the test mixture was deactivated by adding a 0.1 ml aliquot of the test mixture to 0.9 ml of neutralizing broth and the whole solution mixed. The solution was left for 5 minutes to ensure the action of the biocide was effectively neutralized.
To quantify the surviving number of organisms in the neutralized test mixture, 4×0.025 ml aliquots were taken and spot plated onto the surface of dried TSA. The plates were then incubated for 24 hours at 37° C.
For spot plating, colonies from the incubated plates were enumerated using the lower count limit of <1 and the upper count limit of >150. […] For the upper limit, if 156 colonies were counted on a plate, >150 would be recorded and 150 would be used for the calculation.
Enumeration and Calculation of T (Test Mixture) • First, the mean average of cfu per 0.025 ml spots was established using the below calculation,
Log Reduction Calculations (N0−T) • Before calculating the log reduction both N0 and T were converted into a logarithm base 10 value. For example;
The test procedure outlined above was used to test for synergy between polyglyceryl-10 caprylate/caprate (PG1000) and the various biocidal agents listed in Table 1. Varying concentrations were prepared and were tested at 5 mins for the presence of Pseudomonas aeruginosa.

CCCCCCCCCCCCN(CCCN)CCCN [N-(3-aminopropyl)-N-dodecylpropane-1,3-diamine]
Log Reduction (biocide alone 50 ppm): 2.98

CCCCCCCCCCCCN(C)C.Cl [Dodecyledimethylammonuim chloride]
Log Reduction (biocide alone 20 ppm): 3.88

N=C(NCCCCCCNC(=N)NC(=N)Nc1ccc(Cl)cc1)NC(=N)Nc1ccc(Cl)cc1 [Chlorhexidine, reference compound]
Log Reduction (biocide alone 65 ppm): 3.44

CC(C)O [Isopropanol]
Log Reduction (biocide alone 16%): <2.85

polyglyceryl-10 caprylate/caprate [PGE Control]
Log Reduction (PGE alone 100 ppm in deionized water): <2.92 | activity (in words) (at 100 ppm, 5 mins): little or no activity
